Experiment: Long-term stability in spiked pooled human plasma

SMILES | Long-term stability, 1 month, -20°C Accuracy [%] (validation standard 2xLLOV) | Long-term stability, 1 month, -80°C Accuracy [%] (validation standard 2xLLOV) | Long-term stability, 2 month, -20°C Accuracy [%] (validation standard 2xLLOV) | Long-term stability, 2 month, -80°C Accuracy [%] (validation standard 2xLLOV) | Long-term stability, 3 month, -20°C Accuracy [%] (validation standard 2xLLOV) | Long-term stability, 3 month, -80°C Accuracy [%] (validation standard 2xLLOV) | Long-term stability, 6 weeks, 4°C, without daylight Accuracy [%] (validation standard 2xLLOV) | Long-term stability, 1 month, -20°C Accuracy [%] (validation standard LLOV) | Long-term stability, 1 month, -80°C Accuracy [%] (validation standard LLOV) | Long-term stability, 2 month, -20°C Accuracy [%] (validation standard LLOV) | Long-term stability, 2 month, -80°C Accuracy [%] (validation standard LLOV) | Long-term stability, 3 month, -20°C Accuracy [%] (validation standard LLOV) | Long-term stability, 3 month, -80°C Accuracy [%] (validation standard LLOV) | Long-term stability, 6 weeks, 4°C, without daylight Accuracy [%] (validation standard LLOV) | Long-term stability, 1 month, -20°C Accuracy [%] (validation standard MOV) | Long-term stability, 1 month, -80°C Accuracy [%] (validation standard MOV) | Long-term stability, 2 month, -20°C Accuracy [%] (validation standard MOV) | Long-term stability, 2 month, -80°C Accuracy [%] (validation standard MOV) | Long-term stability, 3 month, -20°C Accuracy [%] (validation standard MOV) | Long-term stability, 3 month, -80°C Accuracy [%] (validation standard MOV) | also measured
COC(=O)N[C@@H](C)CNc1nccc(-c2cn(C(C)C)nc2-c2cc(Cl)cc(NS(C)(=O)=O)c2F)n1 [Encorafenib] | 100.7 | 93.5 | 111.7 | 104.1 | 97.4 | 95.2 | 95.2 | 84.2 | 88.1 | 103.4 | 93.1 | 96.1 | 94.9 | 81.0 | 99.0 | 97.1 | 102.3 | 104.9 | 101.8 | 100.8 | Long-term stability, 6 weeks, 4°C, without daylight Accuracy [%] (validation standard MOV): 109.2%; Long-term stability, 1 month, -20°C Accuracy [%] (validation standard ULOV): 99.1%; Long-term stability, 1 month, -80°C Accuracy [%] (validation standard ULOV): 95.7%; Long-term stability, 2 month, -20°C Accuracy [%] (validation standard ULOV): 104.0%; Long-term stability, 2 month, -80°C Accuracy [%] (validation standard ULOV): 101.8%; Long-term stability, 3 month, -20°C Accuracy [%] (validation standard ULOV): 100.7%; Long-term stability, 3 month, -80°C Accuracy [%] (validation standard ULOV): 99.0%; Long-term stability, 6 weeks, 4°C, without daylight Accuracy [%] (validation standard ULOV): 101.7%
CNC(=O)c1ccc(N2C(=S)N(c3ccc(C#N)c(C(F)(F)F)c3)C(=O)C2(C)C)cc1F [Enzalutamide] | 92.7 | 87.8 | 91.5 | 92.9 | 87.1 | 89.0 | 96.8 | 92.6 | 82.3 | 90.2 | 94.8 | 88.7 | 88.4 | 97.2 | 90.3 | 90.6 | 92.8 | 95.7 | 91.6 | 90.6 | Long-term stability, 6 weeks, 4°C, without daylight Accuracy [%] (validation standard MOV): 105.1%; Long-term stability, 1 month, -20°C Accuracy [%] (validation standard ULOV): 85.8%; Long-term stability, 1 month, -80°C Accuracy [%] (validation standard ULOV): 86.1%; Long-term stability, 2 month, -20°C Accuracy [%] (validation standard ULOV): 90.8%; Long-term stability, 2 month, -80°C Accuracy [%] (validation standard ULOV): 90.3%; Long-term stability, 3 month, -20°C Accuracy [%] (validation standard ULOV): 87.7%; Long-term stability, 3 month, -80°C Accuracy [%] (validation standard ULOV): 87.3%; Long-term stability, 6 weeks, 4°C, without daylight Accuracy [%] (validation standard ULOV): 95.0%
COc1cc2ncnc(Nc3ccc(F)c(Cl)c3)c2cc1OCCCN1CCOCC1 [Gefitinib] | 99.2 | 94.2 | 105.6 | 108.5 | 103.9 | 101.3 | 89.3 | 95.8 | 89.0 | 101.3 | 102.7 | 100.2 | 99.5 | 78.5 | 100.7 | 99.3 | 105.1 | 104.1 | 102.7 | 99.9 | Long-term stability, 6 weeks, 4°C, without daylight Accuracy [%] (validation standard MOV): 105.7%; Long-term stability, 1 month, -20°C Accuracy [%] (validation standard ULOV): 98.5%; Long-term stability, 1 month, -80°C Accuracy [%] (validation standard ULOV): 93.5%; Long-term stability, 2 month, -20°C Accuracy [%] (validation standard ULOV): 99.2%; Long-term stability, 2 month, -80°C Accuracy [%] (validation standard ULOV): 101.3%; Long-term stability, 3 month, -20°C Accuracy [%] (validation standard ULOV): 99.2%; Long-term stability, 3 month, -80°C Accuracy [%] (validation standard ULOV): 99.2%; Long-term stability, 6 weeks, 4°C, without daylight Accuracy [%] (validation standard ULOV): 97.6%
Cc1ccc(NC(=O)c2ccc(CN3CCN(C)CC3)cc2)cc1Nc1nccc(-c2cccnc2)n1 [Imatinib] | 97.8 | 96.3 | 104.1 | 112.9 | 64.1 | 72.7 | 103.4 | 88.0 | 77.3 | 95.6 | 103.3 | 19.7 | 18.2 | 86.4 | 87.1 | 84.4 | 99.4 | 96.4 | 90.0 | 90.1 | Long-term stability, 6 weeks, 4°C, without daylight Accuracy [%] (validation standard MOV): 95.4%; Long-term stability, 1 month, -20°C Accuracy [%] (validation standard ULOV): 87.9%; Long-term stability, 1 month, -80°C Accuracy [%] (validation standard ULOV): 79.8%; Long-term stability, 2 month, -20°C Accuracy [%] (validation standard ULOV): 91.0%; Long-term stability, 2 month, -80°C Accuracy [%] (validation standard ULOV): 89.1%; Long-term stability, 3 month, -20°C Accuracy [%] (validation standard ULOV): 89.6%; Long-term stability, 3 month, -80°C Accuracy [%] (validation standard ULOV): 89.4%; Long-term stability, 6 weeks, 4°C, without daylight Accuracy [%] (validation standard ULOV): 89.8%
CS(=O)(=O)CCNCc1ccc(-c2ccc3ncnc(Nc4ccc(OCc5cccc(F)c5)c(Cl)c4)c3c2)o1 [Lapatinib] | 91.4 | 92.2 | 84.4 | 102.3 | 72.0 | 96.3 | 34.8 | 85.5 | 91.6 | 80.7 | 98.5 | 55.4 | 95.3 | 28.2 | 95.3 | 97.6 | 93.7 | 103.0 | 78.1 | 101.0 | Long-term stability, 6 weeks, 4°C, without daylight Accuracy [%] (validation standard MOV): 101.1%; Long-term stability, 1 month, -20°C Accuracy [%] (validation standard ULOV): 96.6%; Long-term stability, 1 month, -80°C Accuracy [%] (validation standard ULOV): 94.5%; Long-term stability, 2 month, -20°C Accuracy [%] (validation standard ULOV): 101.5%; Long-term stability, 2 month, -80°C Accuracy [%] (validation standard ULOV): 100.9%; Long-term stability, 3 month, -20°C Accuracy [%] (validation standard ULOV): 95.4%; Long-term stability, 3 month, -80°C Accuracy [%] (validation standard ULOV): 96.7%; Long-term stability, 6 weeks, 4°C, without daylight Accuracy [%] (validation standard ULOV): 99.9%
O=C(Nc1cnn2ccc(N3CCC[C@@H]3c3cc(F)ccc3F)nc12)N1CC[C@H](O)C1 [Larotrectinib] | 97.9 | 92.9 | 103.6 | 104.7 | 100.8 | 98.8 | 106.7 | 85.6 | 87.5 | 103.5 | 102.1 | 96.4 | 94.2 | 115.2 | 96.7 | 97.2 | 99.1 | 103.2 | 96.2 | 91.1 | Long-term stability, 6 weeks, 4°C, without daylight Accuracy [%] (validation standard MOV): 105.2%; Long-term stability, 1 month, -20°C Accuracy [%] (validation standard ULOV): 95.0%; Long-term stability, 1 month, -80°C Accuracy [%] (validation standard ULOV): 95.5%; Long-term stability, 2 month, -20°C Accuracy [%] (validation standard ULOV): 102.5%; Long-term stability, 2 month, -80°C Accuracy [%] (validation standard ULOV): 104.6%; Long-term stability, 3 month, -20°C Accuracy [%] (validation standard ULOV): 97.8%; Long-term stability, 3 month, -80°C Accuracy [%] (validation standard ULOV): 95.6%; Long-term stability, 6 weeks, 4°C, without daylight Accuracy [%] (validation standard ULOV): 98.0%
